Reference: PubChem BioAssay (NCI)
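Results reflect a 48-hour exposure of cells in 96-well plates to compound at five concentrations. At the GI50, growth is halved. The concentration for full growth arrest is given as TGI.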

Experiments:
Assay in all cases: DTP human tumour cell line panel, 48 h
TK-10 renal = system: TK-10 renal
CCRF-CEM leukemia = system: CCRF-CEM leukemia
SK-MEL-2 melanoma = system: SK-MEL-2 melanoma
MCF7 breast = system: MCF7 breast
U251 CNS = system: U251 CNS
COLO 205 colon = system: COLO 205 colon
SNB-75 CNS = system: SNB-75 CNS
HT29 colon = system: HT29 colon
SF-295 CNS = system: SF-295 CNS
NCI-H23 lung = system: NCI-H23 lung
A498 renal = system: A498 renal
SK-MEL-28 melanoma = system: SK-MEL-28 melanoma
HCC-2998 colon = system: HCC-2998 colon
SR leukemia = system: SR leukemia
LOX IMVI melanoma = system: LOX IMVI melanoma
OVCAR-3 ovarian = system: OVCAR-3 ovarian
NCI-H522 lung = system: NCI-H522 lung
UO-31 renal = system: UO-31 renal
HCT-116 colon = system: HCT-116 colon
UACC-62 melanoma = system: UACC-62 melanoma
MDA-MB-435 = system: MDA-MB-435
M14 melanoma = system: M14 melanoma
KM12 colon = system: KM12 colon
SK-MEL-5 melanoma = system: SK-MEL-5 melanoma
RXF 393 renal = system: RXF 393 renal
786-0 renal = system: 786-0 renal
OVCAR-5 ovarian = system: OVCAR-5 ovarian
OVCAR-8 ovarian = system: OVCAR-8 ovarian
IGROV1 ovarian = system: IGROV1 ovarian
HOP-92 NSCLC = system: HOP-92 NSCLC
NCI-H460 lung = system: NCI-H460 lung
NCI/ADR-RES ovarian = system: NCI/ADR-RES ovarian
BT-549 breast = system: BT-549 breast
OVCAR-4 ovarian = system: OVCAR-4 ovarian
SF-268 CNS = system: SF-268 CNS
MDA-MB-231 breast = system: MDA-MB-231 breast
CAKI-1 renal = system: CAKI-1 renal
A549 NSCLC = system: A549 NSCLC
SNB-19 CNS = system: SNB-19 CNS
SK-OV-3 ovarian = system: SK-OV-3 ovarian
T-47D breast = system: T-47D breast
MOLT-4 leukemia = system: MOLT-4 leukemia
SN12C renal = system: SN12C renal
HCT-15 colon = system: HCT-15 colon
MALME-3M melanoma = system: MALME-3M melanoma
SW-620 colon = system: SW-620 colon
HL-60(TB) leukemia = system: HL-60(TB) leukemia
UACC-257 melanoma = system: UACC-257 melanoma
NCI-H226 lung = system: NCI-H226 lung
PC-3 prostate = system: PC-3 prostate
RPMI-8226 leukemia = system: RPMI-8226 leukemia
ACHN renal = system: ACHN renal
HOP-62 NSCLC = system: HOP-62 NSCLC
DU-145 prostate = system: DU-145 prostate
SF-539 CNS = system: SF-539 CNS
K-562 leukemia = system: K-562 leukemia
HS 578T breast = system: HS 578T breast

## Cn1cc(-c2ccc(=O)n(Cc3cccc(-c4ncc(OCCN5CCOCC5)cn4)c3)n2)cn1
TK-10 renal
  GI50: 99 µM
  TGI: > 100 µM
CCRF-CEM leukemia
  GI50: 82.1 µM
  TGI: > 100 µM
SK-MEL-2 melanoma
  GI50: > 88.3 µM
  TGI: > 100 µM
MCF7 breast
  GI50: 39.5 µM
  TGI: > 100 µM
U251 CNS
  GI50: 92.1 µM
  TGI: > 100 µM
COLO 205 colon
  GI50: 53.7 µM
  TGI: > 100 µM
SNB-75 CNS
  GI50: > 42.5 µM
  TGI: > 100 µM
HT29 colon
  GI50: > 100 µM
  TGI: > 100 µM
SF-295 CNS
  GI50: 0.49 µM
  TGI: > 100 µM
NCI-H23 lung
  GI50: 32.9 µM
  TGI: > 100 µM
A498 renal
  GI50: 60.1 µM
  TGI: > 100 µM
SK-MEL-28 melanoma
  GI50: > 89.5 µM
  TGI: > 100 µM
HCC-2998 colon
  GI50: > 100 µM
  TGI: > 100 µM
SR leukemia
  GI50: 76.4 µM
  TGI: > 100 µM
LOX IMVI melanoma
  GI50: > 100 µM
  TGI: > 100 µM
OVCAR-3 ovarian
  GI50: 58 µM
  TGI: > 100 µM
NCI-H522 lung
  GI50: 74.8 µM
  TGI: > 100 µM
UO-31 renal
  GI50: 64.8 µM
  TGI: > 100 µM
HCT-116 colon
  GI50: 56.5 µM
  TGI: > 100 µM
UACC-62 melanoma
  GI50: 48.7 µM
  TGI: > 100 µM
MDA-MB-435
  GI50: 61.8 µM
  TGI: > 100 µM
M14 melanoma
  GI50: 84.2 µM
  TGI: > 100 µM
KM12 colon
  GI50: 52.2 µM
  TGI: > 100 µM
SK-MEL-5 melanoma
  GI50: 19.6 µM
  TGI: 59.1 µM
RXF 393 renal
  GI50: > 75.4 µM
  TGI: > 100 µM
786-0 renal
  GI50: > 100 µM
  TGI: > 100 µM
OVCAR-5 ovarian
  GI50: > 100 µM
  TGI: > 100 µM
OVCAR-8 ovarian
  GI50: 36.5 µM
  TGI: > 100 µM
IGROV1 ovarian
  GI50: > 76.6 µM
  TGI: > 100 µM
HOP-92 NSCLC
  GI50: 34.9 µM
  TGI: > 100 µM
NCI-H460 lung
  GI50: > 100 µM
  TGI: > 100 µM
NCI/ADR-RES ovarian
  GI50: 37.5 µM
  TGI: > 100 µM
BT-549 breast
  GI50: 32.1 µM
  TGI: > 100 µM
OVCAR-4 ovarian
  GI50: 33.5 µM
  TGI: > 100 µM
SF-268 CNS
  GI50: > 100 µM
  TGI: > 100 µM
MDA-MB-231 breast
  GI50: > 78 µM
  TGI: > 100 µM
CAKI-1 renal
  GI50: > 79.7 µM
  TGI: > 100 µM
A549 NSCLC
  GI50: 71.7 µM
  TGI: > 100 µM
SNB-19 CNS
  GI50: > 87.4 µM
  TGI: > 100 µM
SK-OV-3 ovarian
  GI50: > 100 µM
  TGI: > 100 µM
T-47D breast
  GI50: 20.9 µM
  TGI: > 81.5 µM
MOLT-4 leukemia
  GI50: 36.4 µM
  TGI: > 100 µM
SN12C renal
  GI50: > 69.4 µM
  TGI: > 100 µM
HCT-15 colon
  GI50: > 100 µM
  TGI: > 100 µM
MALME-3M melanoma
  GI50: > 54.9 µM
  TGI: > 100 µM
SW-620 colon
  GI50: > 100 µM
  TGI: > 100 µM
HL-60(TB) leukemia
  GI50: 74.1 µM
  TGI: > 100 µM
UACC-257 melanoma
  GI50: 48.7 µM
  TGI: > 100 µM
NCI-H226 lung
  GI50: 23.5 µM
  TGI: > 100 µM
PC-3 prostate
  GI50: 49.1 µM
  TGI: > 100 µM
RPMI-8226 leukemia
  GI50: 34 µM
  TGI: > 100 µM
ACHN renal
  GI50: > 83.6 µM
  TGI: > 100 µM
HOP-62 NSCLC
  GI50: > 62.7 µM
  TGI: > 100 µM
DU-145 prostate
  GI50: > 100 µM
  TGI: > 100 µM
SF-539 CNS
  GI50: > 100 µM
  TGI: > 100 µM
K-562 leukemia
  GI50: 99.3 µM
  TGI: > 100 µM
HS 578T breast
  GI50: > 100 µM
  TGI: > 100 µM
